The source of these data is patent publication US20240197701A1, “ANDROGEN RECEPTOR INHIBITION TO TREAT SEPSIS AND SHOCK” (priority 2021, published 2024).

Read-outs that look alike come from different tables or passages of the source.

Data set [1] deals with COVID-19. The conditions noted are these: intensive care observational series; cited from earlier work.
For data set [2], the system named is COVID-19. The conditions noted are these: RECOVERY platform trial; cited from earlier work.
In data set [3] the test system is SARS-COV-2. The following applies: for Resolution of Symptoms Odds ratio / Viral Clearance Odds ratio: multivariate logistic regression, within 7 days, azithromycin with the listed drug(s), hydroxychloroquine = reference, N = 475; for Resolution of Symptoms Odds ratio: except anosmia, ageusia; for Increase in viral clearance rate: first 7 days of therapy; for Increase in viral clearance rate / Increase in symptom resolution rate: versus control; for Increase in symptom resolution rate: first week of therapy; for Viral clearance at seven days in men: spironolactone compared to dutasteride; for Odds ratio for viral clearance within seven days when used with nitazoxanide: multivariate analysis; for Adverse events: short duration administration.

The conditions of data set [4]: in vivo; cited from earlier work.
In data set [5] the test system is SARS-COV-2. The conditions noted are these: dutasteride 0.5 mg per day, male patients; cited from earlier work.
The subject of data set [6] is COVID-19. The following applies: 5 mg daily, without achieving statistical significance; cited from earlier work.
Data set [7] deals with SARS-COV-2. The conditions noted are these: cited from earlier work.
Data set [8] relates to COVID-19. Kind of data set: Proxalutamide treatment for hospitalized COVID-19 patients, double-blinded placebo-controlled trial, preliminary report. It counts as in vivo. The conditions noted are these: n = 294.
In data set [9] the test system is COVID-19.
In data set [10] the test system is COVID-19. The following applies: single case, after starting proxalutamide; cited from earlier work.
Data set [11] deals with COVID-19. The following applies: cited from earlier work.

For the compound `C[C@]12CCC(=O)C=C1C=C[C@@H]1[C@@H]2CC[C@@]2(C)[C@H]1CC[C@@]21CCC(=O)O1` [Canrenone], the Fatalities result in [1] is “reduced fatalities”.

Take `COc1cc2c(c(OC)c1OC)-c1ccc(OC)c(=O)cc1[C@@H](NC(C)=O)CC2` [Colchicine]: the “28-day mortality rate ratio” value in [2] is listed as 1.01.

With `CCN(CCO)CCCC(C)Nc1ccnc2cc(Cl)ccc12` (stereo not shown) [Hydroxychloroquine], in data set [3], the “Resolution of Symptoms Odds ratio” value came out at 1 and the “Viral Clearance Odds ratio” value turned out to be 1.

For `CC(=O)Oc1ccccc1C(=O)Nc1ncc([N+](=O)[O-])s1` [Nitazoxanide], in [3], the “Resolution of Symptoms Odds ratio” value was found to be 2.08 and the “Viral Clearance Odds ratio” value is recorded as 1.88. Besides, the “Association with faster viral clearance” value in data set [3] (two times a day for 6 days combined with azithromycin) is recorded as “not associated faster clearance”.

With `C[C@]12C=CC(=O)N[C@@H]1CC[C@@H]1[C@@H]2CC[C@]2(C)[C@@H](C(=O)Nc3cc(C(F)(F)F)ccc3C(F)(F)F)CC[C@@H]12` [dutasteride], in data set [3], the “Increase in viral clearance rate” value is recorded as 320%, the “Increase in symptom resolution rate” value is 70%, the “Viral clearance at seven days in men” value was determined as 21% and the Adverse events entry was “no adverse events noted”. Further, the “Odds ratio for viral clearance within seven days when used with nitazoxanide” value in data set [3] (with nitazoxanide) is given as 7.1. The “Viral clearance at seven days among nitazoxanide male users” value in [3] (nitazoxanide male users) is recorded as 21%. Further, the Half-life result in data set [4] is “five”. Further, in [5], the “Viral clearance at seven days” value is 64.3%.

Regarding `CC(C)(C)NC(=O)[C@H]1CC[C@H]2[C@@H]3CC[C@H]4NC(=O)C=C[C@]4(C)[C@H]3CC[C@]12C` [finasteride], the Inpatient mortality entry in data set [6] is on record as “reduced inpatient mortality”. Also, the Half-life result in [4] is on record as “six”.

Regarding `CC1(C)C(=O)N(c2ccc(C#N)c(C(F)(F)F)c2F)C(=S)N1c1ccc(CCCc2ncco2)nc1` [proxalutamide], the “Viral clearance at seven days in men” value in data set [7] (men) is 81%. Further, the “Viral clearance at seven days in women” value in data set [7] (women) is listed as 85%. The “Mortality (%) Day 14” value in [8] (hospitalized COVID-19 patients, proxalutamide 300 mg q.d.) was found to be 3.7%. Further, in data set [8], the “Discharged (%) Day 14” value is on record as 89.1%; the “Full clinical remission (%) Day 14” value is 75.9%; the “HFO, NIV, or MV use, or death (%) Day 14” value was 4.8%; the “Hospital Length Stay (Days) Mean ± SD” value is 6.3 ± 5.3 days. In data set [8], the “Hospital Length Stay (Days) Median (IQR)” value was 5.0 days, the “Improvement in clinical status - Ordinary scale (days) One point Mean ± SD” value worked out at 3.0 ± 5.5 days, the “Improvement in clinical status - Ordinary scale (days) One point Median (IQR)” value was determined as 1.0 days and the “Improvement in clinical status - Ordinary scale (days) Two points Mean ± SD” value was 5.5 ± 7.1 days. In data set [8], the “Improvement in clinical status - Ordinary scale (days) Two points Median (IQR)” value was found to be 3.0 days, the “New mechanical ventilation (MV) or Death (%) Day 14” value turned out to be 4.4%, the “No HFO or NIV use (%) Day 14” value worked out at 95.2% and the “No oxygen use (%) Day 14” value came to 92.5%. The “28-day median ordinal scale score” value in data set [9] (COVID-19 8-point ordinal scale) stood at 1. The “14-day median ordinal scale score” value in data set [9] (COVID-19 8-point ordinal scale, intention-to-treat, proxalutamide 300 mg/day) is listed as 1. Moreover, in data set [9] (alive hospital discharge), the “Median post-randomization time to recovery” value turned out to be 5 days. In addition, in [9] (alive hospital discharge (scores 1, 2), intention-to-treat), the 14-day recovery rate was found to be 81.4%. Besides, the “Less likely to die than patients in the control group” value in data set [9] (during the study period) was determined as 84%. In data set [9] (human, in vivo), the “Median hospitalization time (days)” value is “eight” and the “Treatment emergent adverse events” value is listed as “limited to diarrhea”. The “Difference in the proportion of alive hospital discharge” value in data set [9] (increased until day 11) amounted to 75%. The “28-day all-cause mortality rate” value in [9] (intention-to-treat) is 11.0%. Moreover, in [9] (over 28 days, versus placebo), the “Hazard ratio for all-cause mortality (death)” value came out at 0.16 and the “Risk ratio for death” value is 0.22. In [9] (over twenty-eight days), the “Number needed to treat (NNT) to prevent one death” value is given as 3. Also, in data set [9] (proxalutamide arm), the “Adverse events grades 4 or 3” value is given as 2.2%, the Diarrhea was determined as 16.1% and the Irritability was determined as 1.3%. Also, in [9] (versus placebo), the 14-day recovery ratio is given as 2.28, the 28-day recovery ratio was 1.81, the “Higher recovery rate than placebo at 28 days” value came out at 81% and the “Higher recovery rate than placebo at day 14” value is recorded as 128%. Further, the “Time to striking symptom resolution and laboratory improvement” value in data set [10] is “twenty-four”. Further, the “Reduction of the risk of hospitalization” value in data set [11] (compared to usual care) is 91%. In addition, in data set [11] (proxalutamide 200 mg for up to seven days, men), the 30-day hospitalization rate was 2.2%.

As to `CC(=O)S[C@@H]1CC2=CC(=O)CC[C@]2(C)[C@H]2CC[C@@]3(C)[C@@H](CC[C@@]34CCC(=O)O4)[C@H]12` [spironolactone], in [3], the “Increase in viral clearance rate” value was found to be 320%, the “Increase in symptom resolution rate” value was 70%, the “Viral clearance at seven days in men” value is reported as 40% and the Adverse events entry is on record as “no adverse events noted”. For the same compound, in [3] (with nitazoxanide), the “Odds ratio for viral clearance within seven days when used with nitazoxanide” value worked out at 10.1 and the “Viral clearance at seven days, added to nitazoxanide” value is on record as 42%. In [3] (spironolactone initiated at the time of COVID-19 diagnosis), the “Viral clearance at seven days” value was 34%. Moreover, the “Viral clearance at seven days, added to ivermectin” value in [3] (with ivermectin) was found to be 26%.

In the case of Ivermectin, in data set [3], the “Resolution of Symptoms Odds ratio” value is 1.45 and the “Viral Clearance Odds ratio” value was determined as 0.32.
